Assay results: EP0505220A1, “New compounds for use in the treatment of cancer” (JARMAN, Michael, priority 1991, dated 1992)

What was measured:
ADJ/PC6 tumour = assay: Antitumour activity towards the ADJ/PC6 tumour in mice; format: in vivo; conditions: for Highest % inhibition: dose (mg/kg)
[1] = Toxicity (LD50) in the ADJ/PC6 mouse study; conditions: in vivo
[2] = Stability of the hydroxymethyl function in human plasma (HPLC); format: in vitro ADME; conditions: human plasma at 37°C, 100 µg/ml; read-out: half-life values for the release of product (9) in human plasma
Procedure: Stability Studies. The influence of the trifluoromethyl substituent on the stability of the hydroxymethyl function under simulated physiological conditions was determined for compound (10) containing contiguous hydroxymethyl and […] functions. General Procedure (for 10). To fresh human plasma (9.9 ml) pre-warmed to 37°C was added a solution of the compound to be studied in dimethylsulphoxide (0.1 ml; 10mg/ml) to give a final concentration of 100 µg/ml. At intervals of 0, 5, 10, 15, 20, 30, 40, 50, 60, 75, 90, 105 and 120 min, aliquots (0.5 ml) were withdrawn and added to ice-cold MeOH (1ml). After centrifugation at 4°C the supernatants were placed in cooled vials on a cold plate (3°C) and aliquots (25 µl) analysed by HPLC using an autosampler. The column used was a C6 (Spherisorb) 15cm x 4.6 mm with a precolumn, and was eluted with MeOH:0.05 M aq. NH₄HCO₃, 55:45, at a flow rate of 1.5 ml min⁻¹. Products were monitored by absorbance at 225 nm. Retention times were: for (10) 11.0 min and for its breakdown product (9) 9.6 min. […] Biological Results. The anti-tumour activities of the compounds of the invention against ADJ/PC6 tumour in mice and against human ovarian tumour cell lines were compared with that of trimelamol (1).

[3] = tested on: cisplatin-resistant cell-lines; assay: Activity in vitro towards cisplatin-resistant cell lines; format: cell-based, human; conditions: Table 4 (image)
Excerpt: Of particular interest is that compounds (5) and (13) show high activity against cisplatin-resistant cell-lines.

PC6 Murine plasmacytoma = assay: Activity in vitro towards PC6 cell line; format: cell-based; conditions: for IC50: PC-6, PC6 Murine plasmacytoma, at least in duplicate, read-out: IC₅₀ PC6
Procedure: (§1) Results expressed as µM (IC₅₀ values). All experiments were conducted at least in duplicate.

[4] = tested on: human ovarian tumour cell lines; assay: Activity in vitro towards ovarian cell lines; format: cell-based; conditions: Table 4 (image)
[5] = tested on: L-1210 murine lymphocytic leukaemia; assay: Activity in vitro towards L-1210 cell line; format: cell-based; conditions: Mus musculus, L1210, at least in duplicate, read-out: IC₅₀ L-1210
Procedure: as §1

[6] = tested on: GCT human testicular germ cell tumour cell line; assay: Activity in vitro towards GCT cell line; format: cell-based; conditions: at least in duplicate, read-out: IC₅₀ GCT
Procedure: as §1

[7] = tested on: GCT/CIS R 6-fold platinum resistant variant of above; assay: Activity in vitro towards GCT/CIS R cell line; format: cell-based; conditions: Homo sapiens; 6-fold platinum resistant variant of GCT; at least in duplicate; read-out: IC₅₀ GCT/CIS R
Procedure: as §1

[8] = tested on: H69 human small cell lung cancer cell line; assay: Activity in vitro towards H69 cell line; format: cell-based; conditions: NCI-H69, at least in duplicate, read-out: IC₅₀ H69
Procedure: as §1

[9] = Judson et al. 1989; cited from earlier work

FC(F)(F)CNc1nc(NCC(F)(F)F)nc(NCC(F)(F)F)n1 [Compound 3, 2,4,6-Tris[(2,2,2-Trifluoroethyl)amino]-1,3,5-triazine]
Highest % inhibition (ADJ/PC6 tumour): none^b (none - less than 40%) | LD50 [1]: 71 mg/kg

OCN(CC(F)(F)F)c1nc(NCC(F)(F)F)nc(NCC(F)(F)F)n1 [Compound 4, 2-(Hydroxymethyl)(2,2,2-trifluoroethyl)amino-4,6-bis[(2,2,2-trifluoroethyl)amino]-1,3,5-triazine]
Highest % inhibition (ADJ/PC6 tumour): 40 (5 x 50) % | LD50 [1]: 117 mg/kg

CN(C)c1nc(N(C)C)nc(N(C)CO)n1 [N-hydroxymethylpentamethylmelamine, reference compound]
half-life [2]: 30 min

CN(C)c1nc(N(C)C)nc(N(CO)CC(F)(F)F)n1 [Compound 10, 2,4-Bis(Dimethylamino)-6-(hydroxymethyl)(2,2,2,trifluoroethyl)-amino-1,3,5-triazine]
half-life [2]: 45 min

OCN(CC(F)(F)F)c1nc(N(CO)CC(F)(F)F)nc(N(CO)CC(F)(F)F)n1 [Compound 5, 2,4,6-Tris[(Hydroxymethyl)(2,2,2-trifluoroethyl)amino]-1,3,5-triazine]
activity against cisplatin-resistant cell-lines [3]: high activity | IC50 (PC6 Murine plasmacytoma): 38.2 µM | potency in a variety of ovarian cell lines compared with (1) [4]: virtually equipotent with (1) | IC50 [5]: 48.6 µM

2-(Hydroxyethyl)(2,2,2-trifluoroethyl)amino-4-methyl-6-(2,2,2-trifluoroethyl)amino-1,3,5-triazine [Compound 7]
Highest % inhibition (ADJ/PC6 tumour): 56 (5 x 25) %

OCOCN(CC(F)(F)F)c1nc(N(CO)CC(F)(F)F)nc(N(CO)CC(F)(F)F)n1 [Compound 6, 2-[([hydroxymethoxy]methyl)(2,2,2-trifluoroethyl)amino]-4,6-bis(hydroxymethyl)(2,2,2-trifluoroethyl)-amino-1,3,5-triazine]
IC50 [6]: 25.8 µM | IC50 (PC6 Murine plasmacytoma): 34.4 µM | Highest % inhibition (ADJ/PC6 tumour): 65 (5 x 12.5) % | LD50 [1]: 280 mg/kg | IC50 [7]: 23.7 µM

C#CCN(CO)c1nc(N(CO)CC#C)nc(N(CO)CC#C)n1 [Compound 13, 2,4,6-Tris[(hydroxymethyl)(propargyl)amino]-1,3,5-triazine]
IC50 [6]: 48.9 µM | activity against cisplatin-resistant cell-lines [3]: high activity | IC50 (PC6 Murine plasmacytoma): 36.8 µM | Highest % inhibition (ADJ/PC6 tumour): none (none - less than 40%) | LD50 [1]: 280 mg/kg | potency in a variety of ovarian cell lines compared with (1) [4]: virtually equipotent with (1) | IC50 [5]: 50.7 µM | IC50 [7]: 41.8 µM

CN(CO)c1nc(N(C)CO)nc(N(C)CO)n1 [Compound 1, 2,4,6-tris{(hydroxymethyl)(methyl)amino}-1,3,5-triazine, reference compound]
IC50 [8]: 8.7 µM | IC50 [6]: 24.3 µM | potency against the ADJ/PC6 tumour cell line in vitro relative to the other compounds (PC6 Murine plasmacytoma; (1) versus (5), (6) and (13)): greater than 3 fold | IC50 (PC6 Murine plasmacytoma): 10.1 µM | Therapeutic Index LD50/ED90 (ADJ/PC6 tumour): 3.1 | ED90 (ADJ/PC6 tumour; Mus musculus): 45 mg/kg | Highest % inhibition (ADJ/PC6 tumour): 96 (5 x 100) % | LD50 [1]: 140 mg/kg | half-life in humans [9]: short | IC50 [5]: 41.7 µM | IC50 [7]: 25.9 µM
